Measured values from patent publication US8663646B2, “P53 peptide vaccine” (priority 2007, dated 2014).
Read-outs that look alike come from different tables or passages of the source. Where no end group is shown, it is not given here.

What was measured:
HLA-A*0201 [1] = target: T1, HLA-A*0201 (Homo sapiens, UniProt P04439, D140Y/D185E/D98H/E176V/E277Q/G131W/G231S/I119V/I121R/I166T/I218V/L300P/L318F/N151K/N90K/P208A/P217A/Q86G/Q94H/R138H/R169H/T345S); assay: Peptide stabilization for HLA-A*0201; assay type: binding; conditions: HLA-A*0201; p53 peptides
HLA-A*0201 [2] = target: T1, HLA-A*0201; conditions: binding capacity previously determined, cited from earlier work
proteasome = assay: Proteasome processing, summarised over proteasome types (Table 5); assay type: biochemical; conditions: 30 residue long precursor peptides
Procedure: In the context of the invention, “being inefficiently processed by a proteasome” preferably means that within the first hour of digestion by a proteasome less than 1% of total digested peptide is found. The processing by a proteasome is preferably assessed by incubating a purified proteasome, more preferably a human proteasome with a peptide comprising the potential CTL epitope (30 amino acid length approximately) in a proteasome digestion buffer during at least one hour at 37° C. The reaction is subsequently stopped by adding trifluoroacetic acid. Analysis of the digested peptides is performed with electrospray ionization mass spectrometry (see example 1). Even more preferably, the human proteasome is an immunoproteasome from B-LCL JY cells (Kessler J H et al. 2001).
20S immuno-proteasomes were purified from a mouse B-cell line (RMA) and a human B-LCL cell line (JY) and 20S household proteasomes were purified from human tumor cell line (HeLa) as described (Kessler J H et al 2001). To assess kinetics, digestions were performed with different incubation periods as indicated. Briefly, peptides containing the (potential) CTL epitopes (30 mers, 20 μg) were incubated with 1 μg of purified proteasome at 37° C. for 1 h, 4 h and 24 h in 300 μl proteasome digestion buffer, trifluoroacetic acid (30 μl) was added to stop the digestion and samples were stored at −20° C. before mass spectrometric analysis. Electrospray ionization mass spectrometry was performed on a hybrid quadrupole time-of-flight mass spectromter, a Q-TOF (Micromass), equipped with an on-line nanoelectrospray interface with an approximate flow rate of […] as described (Kessler J H et al 2001). The peaks in the mass spectrum were searched in the digested precursor peptide using the Biolynx/proteins software (Micromass) supplied with the mass spectrometer. The intensity of the peaks in the mass spectra was used to establish the relative amounts of peptides generated after proteasome digestion. The relative amounts of the peptides are given as a percentage of the total amount of peptide digested by the proteasome at the indicated incubation time. Major cleavage sites are defined as more than >1% of total digested peptide within the first hour.

[3] = target: T2, 20S immuno-proteasomes from human B-LCL cell line (JY) (Homo sapiens, UniProt P28062+P28065+P40306); assay: In vitro proteasome mediated digestion of 30-mers, mass spectrometry, immunoproteasome JY; assay type: biochemical; conditions: 30 residue long precursor peptides
T2 construct: purified from a mouse B-cell line (RMA) and a human B-LCL cell line (JY); endogenous in cells; host or cells: B-LCL JY cells; 20S proteasome purified from them
Summary of the method: (§1)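 30-mer peptides (20 μg) digested with 1 μg purified 20S proteasome (JY or RMA immunoproteasome, HeLa household proteasome) at 37° C for 1, 4 and 24 h, stopped with TFA. Nano-ESI Q-TOF MS; fragments quantified by peak intensity as percent of total digested peptide per time point; major cleavage site >1% within first hour.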

[4] = target: T3, 20S immuno-proteasomes from mouse B-cell line (RMA) (Mus musculus, UniProt O35955+P28063+P28076); assay: In vitro proteasome mediated digestion of 30-mers, mass spectrometry, immunoproteasome RMA; assay type: biochemical; conditions: 30 residue long precursor peptides
T3 construct: 20S immuno-proteasomes were purified from a mouse B-cell line (RMA); endogenous in cells; host or cells: RMA cells; 20S proteasome purified from them
Summary of the method: as §1

[5] = target: T4, 20S household proteasomes from human tumor cell line (HeLa) (Homo sapiens, UniProt P28072+P28074+Q99436); assay: In vitro proteasome mediated digestion of 30-mers, mass spectrometry, household proteasome HeLa; assay type: biochemical; conditions: 30 residue long precursor peptides
T4 construct: 20S household proteasomes were purified from human tumor cell line (HeLa); endogenous in cells; host or cells: HeLa cells; 20S proteasome purified from them
Summary of the method: as §1

[6] = target: T2, 20S immuno-proteasomes from human B-LCL cell line (JY); conditions: PRAME peptides (Kessler J H et al 2001); cited from earlier work
HLA-A*0101 [7] = target: T5, HLA-A*0101 (Homo sapiens, UniProt P04439, A114D/A174V/A182V/D101N/D185E/E176A/E190D/L180R/Q94H/R68K/S129P/T187R/V100A/V91M/W191G); assay: Stability of peptide-HLA complex, binding at 4° C. and 20° C., HLA-A*0101
T5 construct: B-cell lines used are: CAA (A*0101), EKR (A*0301), BVR (A*1101), VIJF (A*2401); endogenous in cells; host or cells: B-cell line CAA

HLA-A*0101 [8] = target: T5, HLA-A*0101; assay: Competition based cellular binding assay, HLA-A*0101 (B-cell line CAA)

CSCC[C@H](NC(=O)[C@@H](N)CCCNC(=N)N)C(=O)N1CCC[C@H]1C(=O)N[C@@H](CCC(=O)O)C(=O)N[C@@H](C)C(=O)N[C@@H](C)C(=O)N1CCC[C@H]1C(=O)N1CCC[C@H]1C(=O)N[C@H](C(=O)O)C(C)C [p53 65-73]
Peptide Binding Stability (HLA-A*0201 [1]): 6 h | Peptide Binding Affinity (HLA-A*0201 [2]): high | generation / processing by household and immunoproteasomes, in words (proteasome): not/inefficiently processed

CC(C)C[C@H](NC(=O)[C@@H](NC(=O)[C@H](Cc1ccccc1)NC(=O)[C@H](Cc1ccc(O)cc1)NC(=O)[C@H](CCC(=O)O)NC(=O)CNC(=O)[C@H](CC(=O)O)NC(=O)[C@H](CC(C)C)NC(=O)[C@@H]1CCCN1)[C@@H](C)O)C(=O)O [p53 322-330]
Proteasomal Cleavage of C-terminus, IP (JY) [3]: + (Major cleavage sites are defined as more than >1% of total digested peptide within the first hour) | IC50 (HLA-A*0201 [2]; read-out: Peptide Binding Affinity): 5 to 15 µM | Proteasomal Cleavage of C-terminus, IP (RMA) [4]: + (Major cleavage sites are defined as more than >1% of total digested peptide within the first hour) | Proteasomal Cleavage of C-terminus, HH (HeLa) [5]: + (Major cleavage sites are defined as more than >1% of total digested peptide within the first hour)

ALYVDSLFFL [PRA 300-309]
Proteasomal Cleavage of C-terminus, IP (JY) [6]: + (Major cleavage sites are defined as more than >1% of total digested peptide within the first hour)

SLLQHLIGL [PRA 425-433]
Proteasomal Cleavage of C-terminus, IP (JY) [6]: + (Major cleavage sites are defined as more than >1% of total digested peptide within the first hour)

SLYSFPEPEA [PRA 142-151]
Proteasomal Cleavage of C-terminus, IP (JY) [6]: + (Major cleavage sites are defined as more than >1% of total digested peptide within the first hour)

VLDGLDVLL [PRA 100-108]
Proteasomal Cleavage of C-terminus, IP (JY) [6]: + (Major cleavage sites are defined as more than >1% of total digested peptide within the first hour)

YLDDRNTFRH [p53 205-214]
HLA binding Stability (Table 5) (HLA-A*0101 [7]; HLA type A1): + (Stable peptides displayed IC50 at 20 °C that deviated <2 times of the IC50 at 4° C.) | Peptide Binding Stability (HLA-A*0101 [7]; HLA-A*0101, IC50 at 20° C. vs 4° C.): + (Stable peptides displayed IC50 at 20 °C that deviated <2 times of the IC50 at 4° C.) | HLA binding Affinity (Table 5) (HLA-A*0101 [8]; HLA type A1): int | IC50 (HLA-A*0101 [8]; HLA-A*0101, IC50 category, read-out: Peptide Binding Affinity): 5 to 15 µM
